Experimental data reported in patent US20130029983A1, “AMINOTHIENOPYRIDAZINE INHIBITORS OF TAU ASSEMBLY” (priority 2009, published 2013).
Where two headings read alike, the source gives them in different places.

What was measured:
K18PL tau [1] = target: T1, K18PL tau (Homo sapiens, UniProt P10636, P618L); assay: Heparin-induced K18PL tau fibrillization assay monitored by ThT fluorescence; format: biochemical; conditions: for inhibition at 80 µM / Tau ThT Assay % Inhib.: highest tested concentration (80 μM); for inhibition at 80 µM: read-out: Tau ThT Assay % Inhib.; for IC50 / Tau ThT Assay Log IC50: logarithm of IC50, K18PL tau ThT fluorescence inhibition; for IC50: read-out: Tau ThT Assay Log IC50 (converted)
T1 construct: (K18PL; amino acids 244-369); made in house
Protocol: Tau fibril formation reactions were performed essentially as described (Crowe, A., Ballatore, C., Hyde, E., Trojanowski, J. Q., and Lee, V. M. Y. (2007) Biochemical and Biophysical Research Communications 358, 1-6). K18PL (2 μl of a 30 μM stock that also contained 0.24 μM Alexa Red-labeled K18PL) was dispensed into black 1536-well plates (Grenier) using a solenoid-based dispenser. Following transfer of 23 nL of test compound or DMSO vehicle by a pin tool from compound library plates, 2 μl/well of 40 μM heparin in reagent buffer was dispensed and the plate was centrifuged for 15 s at 1000 rpm in a table-top centrifuge. The fibrillization reaction proceeded for 6 hours at 37° C. in a humidified incubator (Kalypsys).
K18PL fibril formation was quantified with a ThT assay as previously described (Crowe, A., Ballatore, C., Hyde, E., Trojanowski, J. Q., and Lee, V. M. Y. (2007) Biochemical and Biophysical Research Communications 358, 1-6). Briefly, 1 μl/well of 62.5 μM ThT (Sigma) in 100 mM glycine, pH 8.5 (12.5 μM final concentration) was dispensed into 1536-well plates after completion of the fibrillization reaction and incubated at room temperature for 1 hour. Plates were read on an Envision fluorescence plate reader with an excitation of 450 nm and an emission setting of 510 nm.
Compound effects on tau assembly were determined for the ThT and FP assays using the formula 1−(Fcompound− FDMSO)/( Fcontrol− FDMSO), where Fcontrol denotes the median plate fluorescence values (ThT assay) or mP values (FP assay) of the non-fibrillizing K18 KD control wells, FDMSO denotes the median value of the DMSO control wells, and Fcompound denotes the compound well values. The resulting values were multiplied by 100 to obtain the percent inhibition of tau fibril formation.
(§1) The solubility of test compounds in the sodium acetate buffer used for subsequent fibrillization reactions was determined by turbidimetric measurements. Compounds were then evaluated in a heparin-induced tau assembly assay, in which the fibrillization of the truncated K18 tau fragment (comprised of four MT-binding repeats) bearing the P301L mutation (K18PL) found in FTDP-17, was monitored by thioflavine-T (ThT) binding and fluorescence (FIG. 3A). (Crowe, A.; et al., Identification of aminothienopyridazine inhibitors of tau assembly by quantitative high-throughput screening. Biochemistry 2009, 48, 7732-45.) The inhibitory activity of test compounds was then confirmed with an orthogonal sedimentation assay in which compound-treated fibrillizing mixtures were centrifuged and quantitation of K18PL tau in the soluble and insoluble fraction was performed by densitometric analyses of SDS-PAGE (FIG. 3B). […] Thus, the tau fibrillization assay was repeated in which both DMSO- and compound-treated mixtures were initially centrifuged for 30 min. prior to incubation (i.e., at time zero of the fibrillization reaction) to remove any pelletable material.

K18PL tau [2] = target: T1, K18PL tau; assay: K18PL tau centrifugation (sedimentation) assay, SDS-PAGE densitometry; format: biochemical; conditions: K18PL tau centrifugation assay
Protocol: The determination of compound-induced effects on the amount of tau that remains soluble upon centrifugation, and EM visualization of tau species following incubation with test compounds, were as previously described (Crowe, A., Ballatore, C., Hyde, E., Trojanowski, J. Q., and Lee, V. M. Y. (2007) Biochemical and Biophysical Research Communications 358, 1-6).
as §1

Aβ(1-42) = target: T2, Aβ(1-42) (Homo sapiens, UniProt P05067); assay: Aβ(1-42) fibrillization assay (ThT); format: biochemical; conditions: Table 3, highest tested concentration (80 μM); for inhibition at 80 µM: read-out: Aβ42 ThT Assay % Inhib.
T2 construct: Synthetic Aβ(1-42) peptide (rPeptide); purchased rPeptide

[3] = Table 3, NC = not calculated due to insufficient activity

T2 sequence (P05067 672-713 limits assumed): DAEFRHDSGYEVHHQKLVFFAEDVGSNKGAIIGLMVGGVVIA
T1 sequence (P10636 561-686 P618L): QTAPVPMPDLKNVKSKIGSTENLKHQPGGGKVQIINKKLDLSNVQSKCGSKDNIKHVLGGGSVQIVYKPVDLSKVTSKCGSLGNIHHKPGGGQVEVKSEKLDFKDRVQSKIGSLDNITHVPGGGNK

SMILES | Tau Cent. Assay % Soluble (K18PL tau [2]; Table 4) [%] | Tau Cent. Assay % Soluble (K18PL tau [2]; Table 3) [%] | inhibition at 80 µM (Aβ(1-42)) [%] | inhibition at 80 µM (K18PL tau [1]; Table 3) [%] | IC50 (K18PL tau [1]; [3]) [µM] | other results
CCOC(=O)c1nn(-c2ccc(Br)cc2)c(=O)c2c(N)scc12 [CNDR-51386, Ethyl 5-amino-3-(4-bromophenyl)-4-oxo-3,4-dihydrothieno[3,4-d]pyridazine-1-carboxylate] |  |  |  |  |  | melting point: 198 to 200 °C
CCOC(=O)c1nn(-c2ccccc2)c(=O)c2c(N)scc12 [Compound 5a] |  | 55 |  |  |  | Aβ42 ThT Assay % Inhib. (Aβ(1-42)): −1%; Tau ThT Assay % Inhib. (K18PL tau [1]; Table 3): 80%; Tau ThT Assay Log IC50 (K18PL tau [1]; [3]): −5.2
CCOC(=O)c1nn(-c2ccc(C)c(C)c2)c(=O)c2c(N)scc12 [Compound 5c] |  | 28 | 7 | 48 |  | 
CCOC(=O)c1ccc(-n2nc(C(=O)OCC)c3csc(N)c3c2=O)cc1 [Compound 5e] |  | 23 | 4 | 29 |  | 
CCOC(=O)c1nn(-c2ccccc2)c(=O)c2c(N)sc(C)c12 [Compound 5f] |  | 4 | 21 | 35 |  | 
CCOC(=O)c1nn(-c2ccc(Cl)c(Cl)c2)c(=O)c2c(N)scc12 [Compound 5g] |  | 12 | 6 | 29 |  | 
CCOC(=O)c1nn(-c2ccc(C)cc2)c(=O)c2c(N)scc12 [Compound 5h] |  | 35 | 12 | 51 | 126 | 
Nc1scc2c(C(=O)O)nn(-c3ccccc3)c(=O)c12 [Compound 6a] |  | 84 | 20 | 92 | 7.94 | 
COc1ccc(-n2nc(C(=O)O)c3csc(N)c3c2=O)cc1 [Compound 6b] |  | 95 | 1 | 94 | 2.51 | 
Nc1nn(-c2ccccc2)c(=O)c2c(N)scc12 [Compound 14] |  | 86 | 21 | 92 | 6.31 | 
Nc1scc2c(CO)nn(-c3ccccc3)c(=O)c12 [Compound 15] |  | 81 | 10 | 91 | 6.31 | 
CC(=O)Nc1sc(C)c2cnn(-c3ccccc3)c(=O)c12 [Compound 16] |  | 5 | -11 | 11 |  | 
COC(=O)c1nn(-c2ccc(F)cc2)c(=O)c2c(N)scc12 [Compound 18] |  | 64 | 29 | 86 | 5.01 | 
COC(=O)c1nn(-c2cccc(C(F)(F)F)c2)c(=O)c2c(N)scc12 [Compound 19] |  | 41 |  | 66 | 10 | 

Now from value to compound, other results behind:

Tau Cent. Assay % Soluble (K18PL tau [2]; Table 4) [%] | Tau Cent. Assay % Soluble (K18PL tau [2]; Table 3) [%] | inhibition at 80 µM (Aβ(1-42)) [%] | inhibition at 80 µM (K18PL tau [1]; Table 3) [%] | IC50 (K18PL tau [1]; [3]) [µM] | SMILES | other results
61 |  |  |  |  | CCOC(=O)c1nn(-c2ccc(NC)cc2)c(=O)c2c(N)scc12 [CNDR-51358, Ethyl 5-amino-3-(4-(methylamino)phenyl)-4-oxo-3,4-dihydrothieno[3,4-d]pyridazine-1-carboxylate] | inhibition at 80 µM (K18PL tau [1]; Table 4): 76%; IC50 (K18PL tau [1]; Table 4): 3.98 µM; melting point: 211 to 213 °C
62 |  |  |  |  | CCOC(=O)c1nn(-c2ccc(Cl)cc2)c(=O)c2c(N)sc(Br)c12 [CNDR-51411, Ethyl 5-amino-7-bromo-3-(4-chlorophenyl)-4-oxo-3,4-dihydrothieno[3,4-d]pyridazine-1-carboxylate] | inhibition at 80 µM (K18PL tau [1]; Table 4): 92%; Tau ThT Assay Log IC50 (K18PL tau [1]; Table 4): −5.4
58 |  |  |  |  | CCOC(=O)c1nn(-c2ccccc2C)c(=O)c2c(N)scc12 [CNDR-51424, Ethyl 5-amino-4-oxo-3-(o-tolyl)-3,4-dihydrothieno[3,4-d]pyridazine-1-carboxylate] | inhibition at 80 µM (K18PL tau [1]; Table 4): 82%; IC50 (K18PL tau [1]; Table 4): 1.26 µM
61 |  |  |  |  | CCOC(=O)c1nn(-c2ccccc2Cl)c(=O)c2c(N)scc12 [CNDR-51425, Ethyl 5-amino-3-(2-chlorophenyl)-4-oxo-3,4-dihydrothieno[3,4-d]pyridazine-1-carboxylate] | inhibition at 80 µM (K18PL tau [1]; Table 4): 87%; IC50 (K18PL tau [1]; Table 4): 5.01 µM
77 |  |  |  |  | Nc1scc2c(C(=O)NCCO)nn(-c3ccc(Cl)cc3)c(=O)c12 [CNDR-51433, 5-Amino-3-(4-chlorophenyl)-N-(2-hydroxyethyl)-4-oxo-3,4-dihydrothieno[3,4-d]pyridazine-1-carboxamide] | inhibition at 80 µM (K18PL tau [1]; Table 4): 82%; IC50 (K18PL tau [1]; Table 4): 3.98 µM
56 |  |  |  |  | CCOC(=O)c1nn(-c2ccc(C)cc2C)c(=O)c2c(N)scc12 [CNDR-51434] | Tau ThT Assay % Inhib. (K18PL tau [1]; Table 4): 87%; Tau ThT Assay Log IC50 (K18PL tau [1]; Table 4): −5.7
65 |  |  |  |  | CCOC(=O)c1nn(-c2ccccc2-c2ccccc2)c(=O)c2c(N)scc12 [CNDR-51435, Ethyl 3-([1,1′-biphenyl]-2-yl)-5-amino-4-oxo-3,4-dihydrothieno[3,4-d]pyridazine-1-carboxylate] | inhibition at 80 µM (K18PL tau [1]; Table 4): 78%; IC50 (K18PL tau [1]; Table 4): 0.794 µM
41 |  |  |  |  | CCOC(=O)c1nn(-c2ccccc2F)c(=O)c2c(N)scc12 [CNDR-51439, Ethyl 5-amino-3-(2-fluorophenyl)-4-oxo-3,4-dihydrothieno[3,4-d]pyridazine-1-carboxylate] | inhibition at 80 µM (K18PL tau [1]; Table 4): 48%; IC50 (K18PL tau [1]; Table 4): 0.794 µM
59 |  |  |  |  | CCN(CC)C(=O)c1nn(-c2ccc(OC)cc2)c(=O)c2c(N)scc12 [CNDR-51443, 5-Amino-N,N-diethyl-3-(4-methoxyphenyl)-4-oxo-3,4-dihydrothieno[3,4-d]pyridazine-1-carboxamide] | inhibition at 80 µM (K18PL tau [1]; Table 4): 75%; IC50 (K18PL tau [1]; Table 4): 7.94 µM
 | 54 | 27 | 80 | 7.94 | Nc1scc2c(C(=O)NCc3ccccc3)nn(-c3ccccc3)c(=O)c12 [Compound 8a] | 
 | 89 | 0 | 81 | 15.8 | Nc1scc2c(C(=O)N3CCOCC3)nn(-c3ccccc3)c(=O)c12 [Compound 8b] | 
 | 89 | 16 | 93 | 6.31 | NC(=O)c1nn(-c2ccccc2)c(=O)c2c(N)scc12 [Compound 8c] | 
 | 99 | 35 | 95 | 10 | CCN(CC)C(=O)c1nn(-c2ccc(OC)cc2)c(=O)c2c(N)scc12 [Compound 8d] | 
 | 0 |  |  |  | CCOC(=O)c1nn(-c2ccc(OC)cc2)c(=O)c2c(NC(=O)Cc3ccccc3)scc12 [Compound 9a] | Tau ThT Assay % Inhib. (K18PL tau [1]; Table 3): 31%
 | 11 |  | 27 |  | CCOC(=O)c1nn(-c2ccccc2)c(=O)c2c(NC(C)=O)scc12 [Compound 9b] | 
 | 2 | -7 | 8 |  | CCOC(=O)c1nn(-c2ccccc2)c(=O)c2c(NC(=O)c3ccccc3)scc12 [Compound 9c] | 
